Measured values from article PMC6024778 (Viruses, 2018).

Tested on: rMERS-CoV-S2
Assay type: cell-based, MERS-CoV

With CN1CCN(CCOc2cc(OC3CCOCC3)c3c(Nc4c(Cl)ccc5c4OCO5)ncnc3c2)CC1 [Saracatinib] the EC50 was 9 µM.
